# Measured values taken from PubChem BioAssay AID504313 (Emory University Molecular Libraries Screening Center, 2011).
# pIC50: −log10 of the molar value. Activity calls are given as the source filed them. No rule for the calls is given here.
# Molecular target: X-box-binding protein 1 (Homo sapiens) (UniProt P17861)
# Experiment: XBP1 reporter suppression in cells – counter-screen, dose response (AID 504313);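 also: CHO cells carrying an XBP1 reporter stimulated with tunicamycin; potency is for inhibition of the tunicamycin-induced reporter signal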
# Settings: XBP1 reporter cell assay, percent of control
Compound,IC50,pIC50
CC(C)(C)c1cc(-c2csc(Nc3ccccc3)[n+]2Cc2ccc(C(=O)O)cc2)cc(C(C)(C)C)c1O,inactive,–
NC(=S)n1[nH]c(-c2ccc([N+](=O)[O-])cc2)c(N=Nc2cccc([N+](=O)[O-])c2)c1=O,inactive,–
CCCOc1ccccc1C1CC(=O)NC(C)=C1C(=O)OCC(C)C (stereo not given),inactive,–
CCCCCc1ccc(OCCOCCn2c[n+](C)c3ccccc32)c(CCCCC)c1,inactive,–
CC1(c2ccccc2)CC(C)(C)N2C(=O)/C(=C3\SC(=S)NC3=O)c3cccc1c32 (stereo not given),inactive,–
COC(=O)c1ccc2c(c1)C(C)(C)C(/C=C/c1ccc(OC)c(OC)c1OC)=[N+]2C,inactive,–
CCCCCCCCCCCCCCCCn1cc[n+](C)c1,inactive,–
NC(N)=N/N=C/c1cn(-c2ccccc2)nc1-c1cccs1,> 10 µM (inactive),–
O=C(Nc1ccc(F)cc1)Nc1ccc(N2CCCC2)c(S(=O)(=O)Nc2ccccc2Cl)c1,inactive,–
O=C(Nc1ccccc1Cl)/C(Cl)=C(\Cl)S(=O)c1ccccc1 (stereo not given),–,5.62
COc1ccc(-c2nn(-c3ccccc3)cc2/C=N/N2C(=O)CSC2=S)cc1,> 10 µM (inactive),–
Fc1cc(F)c2nc(Nc3nc4cc5c(cc4s3)OCO5)sc2c1,> 10 µM (inactive),–
COc1ccc(CNc2oc(-c3cccc4ccccc34)nc2C#N)cc1,> 10 µM (inactive),–
COC(=O)C[C@]1(C(=O)OC)CN(C#N)N(c2ccc(Cl)cc2)C12c1ccccc1-c1ccccc12,–,5.36
CN1C(=O)/C(=C/c2cc(N=Nc3ccccc3)ccc2O)SC1=S,inactive,–
O=C1NC[C@@H](Cc2cccc3ccccc23)N(CCc2cc(C(F)(F)F)cc(C(F)(F)F)c2)C1=O,inactive,–
O=C(CCl)N(Cc1cccc([N+](=O)[O-])c1)c1cccc(Cl)c1,inactive,–
CCOC(=O)C1=C(c2ccccc2)O/C(=C(/C#N)C(F)(F)F)S1,> 10 µM (inactive),–
COc1ccccc1-c1nnc(NC(=O)c2ccc(S(=O)(=O)N(C)Cc3ccccc3)cc2)o1,inactive,–
CC(C)=C1C2CCC1C(C(=O)Nc1sc(C)c(-c3ccc(C(C)C)cc3)c1C(N)=O)C2C(=O)O (stereo not given),inactive,–
CCCCn1c(=O)[nH]c(=O)c2c1nc(-c1ccc(OCCC)c(OCC)c1)n2C,> 10 µM (inactive),–
FC(F)(F)c1ccc(/C=N/NC(=S)NC2CCCCC2)cc1,> 10 µM (inactive),–
O=c1c(Cl)c(Cl)cnn1-c1ccccc1,inactive,–
COc1cc(/C=C(\C#N)c2nc3ccccc3[nH]2)cc(Br)c1OCc1ccc(F)cc1,inactive,–

Compound,IC50,pIC50
CC1=C(C)/C(=N\OS(=O)(=O)c2ccc(C)cc2)C=CC1=O,–,5.79
CCCOC(=O)c1ccc(Oc2cn[nH]c2-c2ccc(OC)cc2O)cc1,–,5.32
CC1CCC(C(C)C)C(OCC(O)CN2CCN(Cc3ccccc3)CC2)C1 (stereo not given),> 10 µM (inactive),–
NC(=O)CC(NC(=O)Cc1cccc2ccccc12)c1ccc(NCc2ccccc2)c([N+](=O)[O-])c1 (stereo not given),> 10 µM (inactive),–
Cc1ccc(-n2ncc(Br)c(Br)c2=O)cc1,inactive,–
CCCCCn1c(=O)c(C(=O)Nc2nc3ccccc3[nH]2)c(O)c2ccccc21,–,5.37
COC(=O)c1ccc2c(c1)C(C)(C)C(/C=C/c1ccc(O)cc1)=[N+]2C,> 10 µM (inactive),–
O=C(Nc1ccccc1NC(=O)NC1CCCCC1)NC1CCCCC1,inactive,–
Nc1cc(Cl)c2nonc2c1[N+](=O)[O-],inactive,–
CCOC(=O)c1cnc(-n2nc(C)cc2C)nc1NC1CCCCC1,inactive,–
CCOc1cccc(C(=O)Nc2cccc(-c3nnc(-c4ccc(C)cc4)o3)c2)c1,> 10 µM (inactive),–
C[C@H](NC(=O)c1nc[nH]c1C(=O)N[C@@H](Cc1ccccc1)C(=O)OC(C)(C)C)C(=O)OC(C)(C)C,inactive,–
CC1(c2ccccc2)CC(C)(C)n2c(O)c(C3=NC(=S)NC3=O)c3cccc1c32 (stereo not given),> 10 µM (inactive),–
O=C(Nc1cccc(-c2nc3ncccc3o2)c1)c1sc2ccccc2c1Cl,> 10 µM (inactive),–
CC1CCN(C(=O)/C(=C/c2ccccc2Cl)c2ccccc2)CC1,inactive,–
CC(C)Cn1c(=O)[nH]c(=O)c2c(C(F)(F)F)cc(-c3ccccc3)nc21,> 10 µM (inactive),–
O=[N+]([O-])c1cc(S(=O)(=O)C(F)(F)F)ccc1Sc1nc2ccccc2[nH]1,inactive,–
C=CCOC(=O)C1=C(C)NC(SCC(=O)Nc2nccs2)=C(C#N)C1c1ccc(Cl)cc1 (stereo not given),> 10 µM (inactive),–
Cc1nc(COC(=O)c2cc(O)c3ccccc3c2O)cs1,> 10 µM (inactive),–
CCc1ccc(OCC(=O)NC(NC(=S)Nc2ccccc2)C(Cl)(Cl)Cl)cc1 (stereo not given),> 10 µM (inactive),–
CCOC(=O)c1cc(-c2cccs2)nc2c1c(C)nn2-c1ccccn1,> 10 µM (inactive),–
O=C(CN1c2ccccc2Sc2ccccc21)NNC(=O)Nc1cccc(Cl)c1,> 10 µM (inactive),–
O=C(Nc1ccc([N+](=O)[O-])cc1)Nc1nc(-c2ccc(Cl)s2)cs1,–,5.60
C#CC(=O)N(c1ccc(OC)c(OC)c1)C(C(=O)NC1CCCC1)c1cccs1 (stereo not given),inactive,–

Compound,IC50,pIC50
CN(C)c1ccc(/C=C/c2ccc3c4ccccc4ccc3[n+]2-c2ccccc2)cc1,–,5.64
Cc1ccc2nc(NC(=O)C3CCN(S(=O)(=O)c4cc([N+](=O)[O-])ccc4Cl)CC3)sc2c1,inactive,–
O=C(Nc1ccc(-c2nc3ccccc3s2)cc1)C1=COCCO1,inactive,–
CC1=NN(c2nc(-c3ccc(C)cc3)cs2)C(=O)C1N=Nc1ccccc1O (stereo not given),inactive,–
CCOC(=O)c1sc(N=Nc2c(O)[nH]c(=O)[nH]c2=O)c(C(=O)OCC)c1C,> 10 µM (inactive),–
O=C(Nc1ccc(Cl)cc1)Nc1ccc(N2CCCC2)c(S(=O)(=O)Nc2ccccc2Cl)c1,inactive,–
CCCCCCn1c(-c2ccco2)nc2oc3cc(OC)ccc3c(=O)c2c1=O,> 10 µM (inactive),–
O=S(=O)(N/N=C/c1ccc(Cl)cc1)c1ccc(Cc2ncc(C(F)(F)F)cc2Cl)s1,inactive,–
Nc1cccc(Nc2nc(OC(C(F)(F)F)C(F)(F)F)nc(OC(C(F)(F)F)C(F)(F)F)n2)c1,–,5.68
Cc1ccc(C(=O)CC(=O)c2cc(Cl)ccc2O)cc1,inactive,–
Cc1nn(-c2ccccc2)c(Cl)c1CN(C(=O)CCl)c1ccc(Cl)cc1,–,5.48
CCc1ccc(-c2nc(CSCC(=O)NCc3ccco3)c(C)o2)cc1,–,> 6.80
COC(=O)Oc1ccc(/C=N/NC(=O)CSCc2ccccc2Br)cc1OC,> 10 µM (inactive),–
CC(C)CC(NC(=O)c1ccc(Cl)cc1)C(=O)OCC(=O)c1ccc2c(c1)NC(=O)CO2 (stereo not given),inactive,–
Cc1ccc(NC(=O)c2nc[nH]c2C(=O)N[C@@H](C)C(=O)OC(C)(C)C)cc1,–,5.38
CCCCC(CC)C(=O)Oc1ccc(O)c(C(C)(C)C)c1 (stereo not given),inactive,–
NC(=O)c1cc(-c2ccccc2)nc(N2CCCCCC2)n1,inactive,–
FC(F)(F)c1cccc(NC(=S)Nc2ccc(Cl)cc2Cl)c1,> 10 µM (inactive),–
COc1ccc(N/N=C(\C=N\O)C(=O)c2ccc(OC)cc2)cc1,> 10 µM (inactive),–
O=[N+]([O-])c1ccc(-c2nc(C(Cl)Cl)c3ccccc3n2)cc1,–,5.87
FC(F)(F)c1cccc(NC(=S)NC(c2ccccc2)c2ccccc2)c1,> 10 µM (inactive),–
Cc1ccc2nc(NC(=O)CSCC(=O)OCC(=O)c3ccc(Br)cc3)sc2c1,–,5.45
